Each block holds one molecule with its values, some of them ahead of it. Activity calls are given as the source filed them. No cut-off for these calls is given here.
How the values were obtained:
[1] = biological target: T1, Calcium/calmodulin-dependent protein kinase type II subunit alpha (Rattus norvegicus, UniProt P11275); assay: Displacement of [3H]NCS-382 from CaMK2alpha in rat brain cortical membrane homogenates measured after 1 hr by TopCount scintillation counting method; assay type: cell membranes, Cortex
BCRP [2] = assay: Apparent permeability across basolateral to apical side in MDCK-II-BCRP cells at 3 uM measured after 60 to 90 mins by LC-MS/MS analysis; assay type: ADME, cell-based, Canis lupus familiaris; conditions: dog, time 60-90 min
[3] = Metabolic stability in mouse liver microsomes assessed as intrinsic clearance per mg of protein at 0.5 uM incubated in presence of NADPH regenerating system and measured for 45 mins by LC-MS/MS analysis; assay type: ADME, Microsome; conditions: read-out: CLH
BCRP [4] = assay: Apparent permeability across apical to basolateral side in MDCK-II-BCRP cells at 3 uM measured after 60 to 90 mins by LC-MS/MS analysis; assay type: ADME, cell-based, Canis lupus familiaris; conditions: dog, time 60-90 min
[5] = Drug concentration in C57BL/6J mouse plasma at 10 mg/kg, po by HPLC-MS/MS analysis; assay type: ADME, organism-based; conditions: in vivo
MDR1 (P-gp) [6] = assay: Apparent permeability across basolateral to apical side in MDCKII-MDR1 cells at 3 uM measured after 60 to 90 mins by LC-MS/MS analysis; assay type: ADME, cell-based, Canis lupus familiaris; conditions: dog, MDCK-MDR1, time 60-90 min
[7] = Metabolic stability in human liver microsomes assessed as intrinsic clearance per mg of protein at 0.5 uM incubated in presence of NADPH regenerating system and measured for 45 mins by LC-MS/MS analysis; assay type: ADME, Microsome; conditions: read-out: CLH
[8] = Metabolic stability in mouse hepatocytes assessed as intrinsic clearance per 10^6 cells at 0.5 uM incubated in presence of NADPH regenerating system and measured for 120 mins by LC-MS/MS analysis; assay type: ADME, cell-based, Hepatocyte; conditions: read-out: CLH
[9] = Half life in ip dosed mouse; assay type: ADME, organism-based; conditions: in vivo
MDR1 (P-gp) [10] = assay: Apparent permeability across apical to basolateral side in MDCKII-MDR1 cells at 3 uM measured after 60 to 90 mins by LC-MS/MS analysis; assay type: ADME, cell-based, Canis lupus familiaris; conditions: dog, MDCK-MDR1, time 60-90 min
BCRP [11] = assay: Apparent permeability across apical to basolateral side in MDCK-II-BCRP cells at 3 uM preincubated with BCRP inhibitor, Ko 143 for 15 to 30 mins followed by compound addition and measured after 60 to 90 mins by LC-MS/MS analysis; assay type: ADME, cell-based, Canis lupus familiaris; conditions: dog, with Ko 143 (BCRP inhibitor; concentration not stated), time 60-90 min
MDR1 (P-gp) [12] = assay: Apparent permeability across apical to basolateral side in MDCKII-MDR1 cells at 3 uM preincubated with P-gp/BCRP transporter dual inhibitor, elacridar for 15 to 30 mins followed by compound addition and measured after 60 to 90 mins by LC-MS/MS analysis; assay type: ADME, cell-based, Canis lupus familiaris, MDCK-MDR1; conditions: dog, time 60-90 min
[13] = Unbound brain-to-plasma partition coefficient in C57BL/6J mouse at 10 mg/kg, po measured at 30 mins by HPLC-MS/MS analysis; assay type: ADME, organism-based; conditions: read-out: K(p,uu,brain)
BCRP [14] = assay: Apparent permeability across basolateral to apical side in MDCK-II-BCRP cells at 3 uM preincubated with BCRP inhibitor, Ko 143 for 15 to 30 mins followed by compound addition and measured after 60 to 90 mins by LC-MS/MS analysis; assay type: ADME, cell-based, Canis lupus familiaris; conditions: dog, with Ko 143 (BCRP inhibitor; concentration not stated), time 60-90 min
MDR1 (P-gp) [15] = assay: Apparent permeability across basolateral to apical side in MDCKII-MDR1 cells at 3 uM preincubated with P-gp/BCRP transporter dual inhibitor, elacridar for 15 to 30 mins followed by compound addition and measured after 60 to 90 mins by LC-MS/MS analysis; assay type: ADME, cell-based, Canis lupus familiaris, MDCK-MDR1; conditions: dog, time 60-90 min
[16] = Metabolic stability in human hepatocytes assessed as intrinsic clearance per 10^6 cells at 0.5 uM incubated in presence of NADPH regenerating system and measured for 120 mins by LC-MS/MS analysis; assay type: ADME, cell-based, Hepatocyte; conditions: read-out: CLH
[17] = Ratio of drug concentration in brain to plasma in C57BL/6J mouse at 10 mg/kg, po measured at 30 mins by HPLC-MS/MS analysis; assay type: ADME, organism-based; conditions: read-out: BPR
[18] = Drug concentration in C57BL/6J mouse brain at 10 mg/kg, po by HPLC-MS/MS analysis; assay type: ADME, organism-based; conditions: in vivo
[19] = biological target: T1, Calcium/calmodulin-dependent protein kinase type II subunit alpha; assay: Displacement of [3H]HOCPCA from native CaMK2alpha in rat brain cortical membrane homogenates measured after 1 hr by TopCount scintillation counting method; assay type: cell membranes, Cortex
[20] = biological target: T1, Calcium/calmodulin-dependent protein kinase type II subunit alpha; assay: Displacement of [3H]HOCPCA from recombinant rat CaMK2alpha expressed in HEK293T cells measured after 1 hr by liquid scintillation counting method; assay type: cell-based
[21] = biological target: T2, Calcium/calmodulin-dependent protein kinase type II subunit alpha (Homo sapiens, UniProt Q9UQM7); assay: Binding affinity to recombinant human CaMK2alpha 6x hub domain (345 to 475 residues) Trp403 residue assessed as quenching of intrinsic tryptophan fluorescence at 9.8 to 29 uM by Trp flip assay; conditions: filed as modulator, dose 9.8-29 µM
[22] = biological target: T2, Calcium/calmodulin-dependent protein kinase type II subunit alpha; assay: Binding affinity to recombinant human CaMK2alpha 6x hub domain (345 to 475 residues) expressed in Escherichia coli BL21 DE3 assessed as dissociation constant by surface plasmon resonance assay
[23] = biological target: T2, Calcium/calmodulin-dependent protein kinase type II subunit alpha; conditions: filed as modulator
Description: Binding affinity to recombinant human CaMK2alpha 6x hub domain (345 to 475 residues) expressed in Escherichia coli BL21 DE3 assessed as dissociation rate constant by surface plasmon resonance assay

[24] = biological target: T2, Calcium/calmodulin-dependent protein kinase type II subunit alpha; assay: Binding affinity to recombinant human CaMK2alpha 6x hub domain (345 to 475 residues) expressed in Escherichia coli BL21 DE3 assessed as thermal stability by measuring change in melting temperature at 5 to 1280 uM by SYPRO orange dye based differential scanning fluorimetry; conditions: dose 5-1280 µM

T1 sequence (P11275 whole entry): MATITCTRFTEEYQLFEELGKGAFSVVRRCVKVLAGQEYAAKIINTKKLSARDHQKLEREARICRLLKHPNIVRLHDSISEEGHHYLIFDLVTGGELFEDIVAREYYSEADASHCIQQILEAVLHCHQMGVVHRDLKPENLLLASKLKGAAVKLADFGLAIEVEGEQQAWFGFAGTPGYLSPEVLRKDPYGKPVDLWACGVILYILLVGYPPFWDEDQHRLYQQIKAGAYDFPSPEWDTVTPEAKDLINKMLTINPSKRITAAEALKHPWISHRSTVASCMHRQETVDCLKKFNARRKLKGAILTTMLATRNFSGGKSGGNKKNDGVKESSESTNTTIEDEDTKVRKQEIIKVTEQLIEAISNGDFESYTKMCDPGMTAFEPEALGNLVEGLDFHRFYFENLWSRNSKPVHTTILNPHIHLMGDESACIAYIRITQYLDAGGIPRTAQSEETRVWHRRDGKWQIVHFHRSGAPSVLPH
T2 sequence (Q9UQM7 whole entry, the tested form may be a part): as the sequence (P11275 whole entry) above, with N324S counted along it

SMILES: O=C(O)/C=C1\CCCc2c(/C=C/c3c(Cl)cccc3Cl)cccc2C1O (stereo unspecified)
- Ki [1]: 110 nM

SMILES: O=C(O)C1=CC(O)CC1 (stereo unspecified)
- Ki [1]: 160 nM
- Ki [19]: 130 nM
- Ki [20]: 1800 nM

SMILES: O=C(O)/C=C1\CCCc2ccc(-c3ccccc3)cc2C1O (stereo unspecified)
- Ki [1]: 14000 nM

SMILES: O=C(O)/C=C1\CCCc2c(Br)cccc2C1O (stereo unspecified)
- Ki [1]: 230 nM

SMILES: O=C(O)/C=C1\CCCc2cc(/C=C/c3ccccc3)ccc2C1O (stereo unspecified)
- Ki [1]: 40 nM

SMILES: O=C(O)/C=C1\CCCc2ccccc2C1O (stereo unspecified)
- Ki [1]: 340 nM
- Ki [19]: 590 nM
- Kd [22]: 8900 nM
- Ki [20]: 3900 nM
- Kdiss [23]: 0.75 s⁻¹
- ΔTm [24]: 16.7 °C

Continued, values first:

- Ki [1]: 110 nM
SMILES: O=C(O)/C=C1\CCCc2cc(F)ccc2C1O (stereo unspecified)

- Papp B→A at 3 µM (BCRP [2]): 19.4 ×10⁻⁶ cm/s
- microsomal CLint at 0.5 µM [3]: > 9.9 µL/min/mg
- Papp A→B at 3 µM (BCRP [4]): 15.8 ×10⁻⁶ cm/s
- Cp [5]: 1450 ng/mL
- Papp B→A at 3 µM (MDR1 (P-gp) [6]): 16.3 ×10⁻⁶ cm/s
- microsomal CLint at 0.5 µM [7]: > 9.9 µL/min/mg
- hepatocyte CLint at 0.5 µM [8]: 65 µL/min/1e6 cells
- half-life [9]: 18 min
- Papp A→B at 3 µM (MDR1 (P-gp) [10]): 13 ×10⁻⁶ cm/s
- Papp A→B at 3 µM (BCRP [11]): 15.9 ×10⁻⁶ cm/s
- Papp A→B at 3 µM (MDR1 (P-gp) [12]): 12.9 ×10⁻⁶ cm/s
- Kp uu at 0.5 h [13]: 0.85
- Papp B→A at 3 µM (BCRP [14]): 16.5 ×10⁻⁶ cm/s
- Papp B→A at 3 µM (MDR1 (P-gp) [15]): 15 ×10⁻⁶ cm/s
- hepatocyte CLint at 0.5 µM [16]: 8.6 µL/min/1e6 cells
- Kp at 0.5 h [17]: 0.1
- Ct [18]: 99.1 ng/mL
SMILES: O=C([O-])/C=C1\CCCc2cc(-c3ccccc3)ccc2C1O.[Na+] (stereo unspecified)

- Ki [1]: 320 nM
SMILES: Cc1ccc2c(c1)CCC/C(=C\C(=O)O)C2O (stereo unspecified)

- Ki [1]: 56 nM
SMILES: O=C(O)/C=C1\CCCc2c(CCc3ccccc3)cccc2C1O (stereo unspecified)

- Ki [1]: 14000 nM
- Ki [19]: 81 nM
- Activity [21]: Active
SMILES: O=C(O)/C=C1\CCCc2c(/C=C/c3ccccc3)cccc2C1O (stereo unspecified)

Reference: ChEMBL document CHEMBL5096232, “Exploring the NCS-382 Scaffold for CaMKIIα Modulation: Synthesis, Biochemical Pharmacology, and Biophysical Characterization of Ph-HTBA as a Novel High-Affinity Brain-Penetrant Stabilizer of the CaMKIIα Hub Domain” (J Med Chem, 2022)
